Experimental data published in patent US4333944A, “8-Halo-6-phenyl-4H-s-triazolo (3,4-c) thieno 1,4-diazepin-1-ones” (Boehringer Ingelheim GmbH, priority 1977, dated 1982).

Assays:
[1] = test system: lethal effect of 125 mgm/kg of pentylene tetrazole; test: Pentetrazole antagonism, mouse; format: in vivo, mouse (albino, NMRI); settings: po, 1 h, peroral, suspension in olive oil, 125 mgm/kg pentylene tetrazole i.p. one hour after test compound, graphically determined
Experimental: (§1) Albino mice (NMRI) having a body weight of 20 to 25 gm or albino rats (FW49) having a body weight of 140 to 200 gm were used for the tests, and the test compound was in all cases administered perorally in suspension in olive oil by means of an esophageal sound.
(§2) The pentylene tetrazole is administered intraperitoneally one hour after administration of the test compound [see M. I. Gluckmann, Curr. Ther. Res. 7, 721 (1965)].
(§3) The values shown in the following table are graphically determined.

Acute toxicity = test: Acute toxicity; design: species or system mouse (albino, NMRI); settings: in vivo, po; mouse; peroral, suspension in olive oil; graphically determined
From the text: as §1
Determination of the median lethal dose (LD50), i.e. the dose which causes 50% of the test animals to die [Litchfield and Wilcoxon, J. Phamacol. Exper. Therap. 96,99 (1949)].
as §3

[2] = test system: lethal effect of 125 mgm/kg of pentylene tetrazole; test: Pentetrazole antagonism, rat; format: in vivo, rat (albino, FW49); settings: po, 1 h, peroral, suspension in olive oil, 125 mgm/kg pentylene tetrazole i.p. one hour after test compound, graphically determined
Experimental: as §1, §2, §3

[3] = test system: test animals in a conflict situation; test: Conflict situation (inhibition of passive avoidance); format: in vivo, rat (albino, FW49); settings: po; rat; peroral, suspension in olive oil; dose at which animals depress lever ten times despite signalled shock; graphically determined
From the text: as §1
Determination of the dose of the test compound (DT10) at which the test animals in a conflict situation depress a lever ten times to receive a food pellet, even though a simultaneous visual signal indicates to them that they will also receive an electrical shock at the same time [see J. Geller, Arch. Int. Pharmacodyn. 149, 243 (1964)].
as §3

With `O=c1[nH]nc2n1-c1sc(Br)cc1C(c1ccccc1Cl)=NC2` [Example 1, 8-Bromo-6-(o-chloro-phenyl)-4H-s-triazolo[3,4-c]thieno-[2,3-e]1,4-diazepin-1-one] the ED50 [1] was 0.37 mg/kg, the LD50 (Acute toxicity) was > 2000 mg/kg and the ED50 [2] was 1.9 mg/kg. It also gave an ED (DT10 (ten lever presses)) [3] of 1.25 mg/kg.
